Literature values in patent US20100028276A1, “SUNSCREEN COMPOSITIONS” (priority 2007, published 2010).

Experiments:
[1] = uterine wet weight, cell height, cell proliferation assays

| Compound | estrogenicity [1] | effect on growth of cancer cells (cancer cells) |
| --- | --- | --- |
| Cc1ccc(C=C2C(=O)C3(C)CCC2C3(C)C)cc1 (stereo not drawn) [4-methyl-benzylidene camphor, 3-(4-methylbenxylidene) camphor] | highly estrogenic | made cancer cells grow more rapidly |
| COc1ccc(C(=O)c2ccccc2)c(O)c1 [benzophenone-s, Benzophenone-3] | highly estrogenic | made cancer cells grow more rapidly |
| CC1CC(OC(=O)c2ccccc2O)CC(C)(C)C1 (stereo not drawn) [homosalate] |  | made cancer cells grow more rapidly |
| CCCCC(CC)COC(=O)c1ccc(N(C)C)cc1 (stereo not drawn) [octyl-dimethyl-PABA] |  | made cancer cells grow more rapidly |
